In patent US6593140B1, “Animal cell culture” (Lonza Group, AG, priority 1992, dated 2003):

Tests used:
[1] = tested on: mouse hybridoma cell line; details: 5 μM tropolone
Procedure: Flasks were gassed with an atmosphere of 5% CO2—95% air and incubated on an orbital shaking platform (120 rpm) at 36.5° C. for 3 days.
After 3 days samples were withdrawn from flasks and cell concentration determined using a Coulter multisizer.

[2] = tested on: mouse hybridoma cell line; details: increasing concentrations up to 10 mg/l, transferrin-free medium, 3 days, FIG. 2A
Procedure: A mouse hybridoma cell line, previously subcultured in serum free medium containing human transferrin, was centrifuged and resuspended at 1.5×10^5 cells/ml in either transferrin-free or transferrin-containing serum-free medium. […] The flasks were gassed in 5% CO2—95% air atmosphere, sealed and incubated either static or on an orbital reciprocal shaking platform (120 rpm) at 36.5° C. for 3 days. Samples were then removed and cell concentration was determined by haemocytometry.

[3] = tested on: recombinant GS-myeloma cell lines [mouse NS/O]; assay: Growth and productivity of recombinant GS-myeloma NS/O cell lines in suspension culture; assay type: cell-based; details: for PEAK CELL DENSITY: 0.2 mg/l ferric ammonium citrate with 5 μM tropolone or 1 mg/l transferrin
Description: The efficacy of using tropolone as a transferrin replacement was further investigated using recombinant GS-myeloma cell lines [mouse NS/O] expressing humanised antibodies using the glutamine synthetase (GS) expression system, [Bebbington et al., Bio/Technology, 10, 169-175; European Patent Specification No. 256055].

[4] = tested on: mouse hybridoma cell line; assay: Growth of mouse hybridoma cells in transferrin-free medium with iron chelators, static 24-well culture, 3 days; assay type: cell-based
Procedure: A mouse hybridoma cell line previously subcultured in a serum-free medium containing 1 μg/ml human transferrin was centrifuged and resuspended in transferrin-free medium twice. […] 100×concentrates of the iron chelators to be tested (8-hydroxyquinoline, tropolone, mimosine, maltol or picolinic acid) were prepared in water and filter sterilised. 10 μl of each iron chelator was dispersed into wells of a 24 well costar plate and then 1 ml of cell suspension added. […] Control wells contained either 10 μl water (negative control) or 10 μl of 100 μg/ml human transferrin solution (positive control). Plates were incubated for 3 days in a humidified incubator under a 5% CO2—95% air atmosphere at 36.5° C. under static conditions. After 3 days samples of dispersed cell suspensions from individual wells were analysed using a Coulter Multisizer to determine cell concentration.

animal cells = assay: Support of growth in agitated animal cell culture at low iron concentration; assay type: cell-based
[5] = tested on: mouse myeloma cell line [GS-NSO]; assay: Growth of GS-NSO myeloma cells in protein-free LS1 medium, shake flasks; assay type: cell-based; details: 5 μM tropolone, FIG. 5
Procedure: The LS1 medium additionally contained 2-hydroxypropyl-β-cyclodextrin [HPB; 1.2 g/l] complexed with cholesterol and fatty acids [prepared before addition to LS1 by dissolving HPB ([…]) in water and adding to an equal volume of a supplement containing cholesterol and the fatty acids previously dissolved in absolute alcohol, then agitating for 3 hours prior to centrifugation and filtering].

[6] = 5 μM tropolone vs 1 mg/l transferrin, 0.2 mg/l ferric ammonium citrate, three cell lines

ferric ammonium citrate
growth yield ([1]; data not shown): 3.3×10^7 cells/μg ferric ammonium citrate | concentration range giving maximum biomass ([1]; shaken 120 rpm, 3 days): 0.075 to 1 mg/L | effect on cell concentration in static culture [2]: support increasing cell concentrations | time to death of myeloma cells (failed to thrive) ([3]; 0.2 mg/l ferric ammonium citrate in the absence of either tropolone or transferrin): ≤ 48 h

O=C(O)c1ccccn1 [picolinic acid, reference compound]
support of cell growth (cell concentration after 3 days) ([4]; 50 μM, 0.1 mg/l ferric ammonium citrate, FIG. 1B): much less effective

TRANSFERRIN: human transferrin, natural iron-chelating protein used as positive control
PEAK CELL DENSITY ([3]; Cell line A): 1.3e+06 mL⁻¹ | PEAK CELL DENSITY ([3]; Cell line B): 1.46e+06 mL⁻¹ | PEAK CELL DENSITY ([3]; Cell line C): 2.62e+06 mL⁻¹

CC(=O)CC(C)=O [acetylacetone, reference compound]
support of cell growth (cell concentration after 3 days) ([4]; 100 μM, 0.1 mg/l ferric ammonium citrate, FIG. 1B): much less effective

O=C(O)[C@H](O)[C@@H](O)[C@H](O)[C@H](O)CO [gluconate]
support of growth in agitated cell culture (animal cells): has failed

O=C(O)CC(O)(CC(=O)O)C(=O)O [citrate]
support of growth in agitated cell culture (animal cells): has failed

2-hydroxypropyl-β-cyclodextrin [reference compound]
performance as carrier for cholesterol and fatty acids (cell growth) ([5]; 1.2 g/l HPB in LS1 medium vs bovine serum albumin): an effective replacement for bovine serum albumin

O=c1cccccc1O [tropolone, 2-hydroxy-2,4,6-cycloheptatrien-1-one]
support of cell growth ([5]; 0.2 mg/l ferric ammonium citrate, LS1 medium with HPB or BSA carrier): able to support the growth of both cultures | support of growth in agitated cell culture (animal cells): can support growth | support of cell growth (cell concentration after 3 days) ([4]; 3 μM tropolone, 0.36 μM iron (0.1 mg/l ferric ammonium citrate), transferrin-free, FIG. 1A): as effective as 1 μg/ml of human transferrin at supporting cell growth | support of cell growth (cell concentration after 3 days) ([4]; 5 μM, 0.1 mg/l ferric ammonium citrate, FIG. 1B): effective at supporting cell growth | growth rates compared with transferrin medium [3, 6]: similar | peak viable cell concentration compared with transferrin medium [3, 6]: similar | PEAK CELL DENSITY ([3]; Cell line A): 1.51e+06 mL⁻¹ | PEAK CELL DENSITY ([3]; Cell line B): 1.49e+06 mL⁻¹ | PEAK CELL DENSITY ([3]; Cell line C): 3.17e+06 mL⁻¹
